Measured values taken from patent US7951775B2, “Methods and pharmaceutical compositions for GnRH-I and GnRH-II modulation of T-cell activity, adhesion, migration and extravasation” (priority 2001, dated 2011).
Entries after “also recorded” stand apart in the source; their conditions may differ.

Legend:
normal human T-cells [1] = test: Double immunofluorescence staining (FACS) for surface 67 kDa laminin receptor and TCR; type: cell-based; conditions: for 67 kDa LR and TCR positive (double positive) cell population: 10 nM, 48 hours, 37° C., untreated 35.7%; for surface expression of the 67 kDa LR, in words: vs untreated normal human T-cells
Protocol: Normal human T-cells, isolated from fresh peripheral blood lymphocytes, or EL-4 T-lymphocyte cells were subjected to double immunofluorescence staining, using a mouse monoclonal anti-67 kDa LR antibody (100 μl of 1:20 dilution per 1×10^6 cells/tube; 30 minutes on ice), or normal mouse sera for control. The cells were then stained with an FITC-conjugated goat anti-mouse IgG (100 μl of 1:100 dilution), and PE-conjugated mouse anti-human TCR αβ mAb (2 μl of stock). Cells that were stained only with the second and third antibodies served as additional negative controls. Fluorescence profiles were recorded in a FACSORT. To determine whether GnRH-II and GnRH-I trigger not only the gene transcription but also the surface expression of the 67 kDa LR, normal human T-cells were treated with either GnRH-II or GnRH-I for 18-66 h and subjected to double immunofluorescence staining using a monoclonal antibody (mAb) that is specific for the 67 kDa LR, and a phycoerythrin (PE)-conjugated anti-TCRαβ mAb (to confirm the T-cell origin of the cells). FIGS. 2A-2C show the staining for the untreated, GnRH-I treated and GnRH-II treated T-cells, respectively. The FACS profiles can be interpreted by division according to four categories: 1. Negative staining for both mAbs (double negative, lower left quadrant); 2. Single positive staining only with the anti-LR mAb (lower right quadrant), 3. Single positive staining only with the anti-TCR mAb (upper left quadrant); 4. Double positive staining with both mAbs (upper right quadrant). […] In different experiments, each using freshly isolated T-cells from a different human donor, both GnRH II and GnRH I repeatedly elevated the laminin receptor expression level, but the magnitude of elevation varied within a range of 6-40%. Such variations between T-cell populations originating from different donors are often observed in respect to various T-cell features and functions.

normal human T-cells [2] = test: Double immunofluorescence staining for VLA-6 laminin-binding integrin and TCR; type: cell-based; conditions: untreated cells about 75% double positive; data not shown
Excerpt: Finally, the possibility that the stimulation of normal human T-cells by either GnRH-I, GnRH-II or anti-CD3+ anti-CD28 mAbs, elevates not only the non-integrin 67 kDa LR but also the expression level of the VLA-6 laminin-binding integrin (known to be expressed on T-cells) was investigated. […] Thus stimulation by GnRH-II and GnRH-I (as well as TCR-activation) primarily increases-the-protein surface expression of the non-integrin 67 kDa LR, but not of the VLA-6 laminin binding integrin.

normal human T-cells [3] = test: T-cell adhesion to laminin assay; type: cell-based; conditions: 10 nM, 48 hours pretreatment; PMA 10 ng/ml positive control; four donors
Protocol: Adhesion of T-cells to laminin was assayed as follows: normal human T-cells, purified from a fresh blood sample, were suspended (1×10^6 cells/ml) in rest medium (RPMI-1640, supplemented with 10% fetal calf serum (Sigma Chemical Co., St. Louis, Mo.), 1% antibiotics, 1% glutamine (Biological Industries, Beit Haemek, Israel) and 0.4% fungizone (GibcoBRL, Life Technologies Ltd., Paisley, Scotland)). The cells were then supplemented with 10 nM GnRH-I or GnRH-II and incubated for variable periods of time (0.5-72 hours, 37° C., 7.5% CO2 humidified incubator). Following incubation the cells were washed and resuspended in adhesion medium (RPMI-1640 supplemented with 0.1% bovine serum albumin (BSA, Sigma)). […] The optical density (OD) was measured at 405 nm in a standard ELISA reader. […]
To study the functional consequences of the increase in the 67 kDa LR expression level following GnRH stimulation, the ability of GnRH-treated normal human T-cells to adhere to laminin was assessed. […] In parallel, increasing numbers of untreated cells were seeded on separate plates, in order to establish a standard curve, enabling the relation of results obtained in units of fluorescence intensity (OD) to actual number of cells.

EL-4 T-lymphoma cells = test: Double immunofluorescence staining for 67 kDa LR and TCRαβ on EL-4 cells; type: cell-based, mouse; conditions: 10 nM, vs untreated EL-4 cells
Protocol: Normal human T-cells, isolated from fresh peripheral blood lymphocytes, or EL-4 T-lymphocyte cells were subjected to double immunofluorescence staining, using a mouse monoclonal anti-67 kDa LR antibody (100 μl of 1:20 dilution per 1×10^6 cells/tube; 30 minutes on ice), or normal mouse sera for control. The cells were then stained with an FITC-conjugated goat anti-mouse IgG (100 μl of 1:100 dilution), and PE-conjugated mouse anti-human TCR αβ mAb (2 μl of stock). Cells that were stained only with the second and third antibodies served as additional negative controls. Fluorescence profiles were recorded in a FACSORT.
Normal syngeneic C57BL/6 female recipient mice were then subjected to 300 rad total body irradiation, and several hours later inoculated I.P with 5×10^6 cells/mouse of either untreated or GnRH-treated EL-4 lymphoma cells. In parallel, samples from the treated and GnRH inoculated EL-4 cells were tested by double immunofluorescence (as described above) for the level of their 67 kD LR and TCRαβ. […] Following further dilution in PBS for the kidney (1:3) and liver (1:10), the number of fluorescent cells, as well as the total number of cells in each tube, were counted by flow cytometry (FACSORT).

pGlu-His-Trp-Ser-Tyr-Gly-Leu-Arg-Pro-Gly-NH2 [GnRH-I]
67 kDa LR and TCR positive (double positive) cell population (normal human T-cells [1]): 72.4% | surface expression of the 67 kDa LR, in words (normal human T-cells [1]): significantly increased | expression level of VLA-6 laminin-binding integrin (normal human T-cells [2]): unaffected | T-cell adhesion to laminin (normal human T-cells [3]): as efficiently as PMA; also recorded: as markedly as does PMA | surface level of 67 kDa LR on TCR αβ+ EL-4 cells (EL-4 T-lymphoma cells): increases

B1: GnRH-II: unique ten amino acid long neuropeptide, 70% homologous in peptide structure to GnRH-I, encoded by its own gene (peptide)
peptide: QHWSHGWYPGGKRALSSAQDPQNALRPPGRALDTAAGSPVQTAHGLPSDALAPLDDSMPWEGRTTAQWSLHRKRHLARTLLTAAREPRPAPPSSNKV
67 kDa LR and TCR positive (double positive) cell population (normal human T-cells [1]): 74.3% | surface expression of the 67 kDa LR, in words (normal human T-cells [1]): significantly increased | expression level of VLA-6 laminin-binding integrin (normal human T-cells [2]): unaffected | T-cell adhesion to laminin (normal human T-cells [3]): as efficiently as PMA; also recorded: as markedly as does PMA | surface level of 67 kDa LR on TCR αβ+ EL-4 cells (EL-4 T-lymphoma cells): increases
